Laboratory results: patent US5214070A, “Diaryl ether cycloalkanes” (Imperial Chemical Industries PLC, priority 1989, dated 1993)

Tested on: 5-LO
Assay: Test b): A23187-challenged heparinised human blood, LTB4 radioimmunoassay
Assay type: cell-based
Conditions: A23187 challenge
Experimental: b) An in vitro assay system involving incubating a test compound with heparinised human blood, prior to challenge with the calcium ionophore A23187 and then indirectly measuring the inhibitory effects on 5-LO by assaying the amount of LTB4 using the specific radioimmunoassay described by Carey and Forder (F. Carey and R. A. Forder, Brit. J. Pharmacol. 1985, 84, 34P) which involves the use of a protein-LTB4 conjugate produced using the procedure of Young et alia (Prostaglandins, 1983, 26(4), 605-613). The effects of a test compound on the enzyme cyclooxygenase (which is involved in the alternative metabolic pathway for arachidonic acid and gives rise to prostaglandins, thromboxanes and related metabolites) may be measured at the same time using the specific radioimmunoassay for thromboxane B2 (TxB2) described by Carey and Forder (see above). This test provides an indication of the effects of a test compound against 5-LO and also cyclooxygenase in the presence of blood cells and proteins. It permits the selectivity of the inhibitory effect on 5-LO or cyclooxygenase to be assessed.

IC50 [nM]	SMILES
~200	CO[C@H]1CCC[C@@]1(OC)c1cc(F)cc(Sc2ccc3ccccc3c2)c1 (racemic) [(1RS,2SR)-1-[5-fluoro-3-(naphth-2-ylthio)phenyl]-1,2-dimethoxycyclopentane]
~200	C=CCO[C@@]1(c2cc(F)cc(Sc3ccc4ccccc4c3)c2)CCC[C@@H]1OC (racemic) [(1RS,2SR)-1-allyloxy-1-[5-fluoro-3-(naphth-2-ylthio)phenyl]-2-methoxycyclopentane]
